Laboratory results as given in patent US7914817B2, “Treatment of inflammatory bowel disease” (Ed. Geistlich Soehne AG fuer Chemische Industrie, priority 2000, dated 2011).

Assays:
[1] = test system: systemic inflammatory response in patients with active inflammatory bowel disease; experiment: Oral taurolidine in patients with active IBD: systemic inflammatory response (Example 1); format: in vivo; conditions: pre- vs post-administration (day 2, 5, 10)
Procedure: This experiment evaluates the beneficial effects of oral administration of taurolidine on attenuation of systemic inflammatory response in patients with active inflammatory bowel disease. This Example measures systemic proinflammatory and angiogenic cytokines, systemic reactive oxygen species and nitric oxide in patients with IBD pre- and post-taurolidine administration. Secondly, circulating PMN and monocytes from patients with IBD are assessed for their adhesion receptor expression, and their ability to release proinflammatory and angiogenic cytokines, as well as reactive oxygen species and nitric oxide following taurolidine treatment.
• 1) Peripheral venous blood samples are collected from patients on the day before taurolidine administration, and day 2, day 5 and day 10 after taurolidine administration. Serum samples are harvested by centrifugation and stored at −80° C. for measurement of serum levels of endotoxin, LPS binding protein (LBP), and soluble CD14, serum proinflammatory cytokines (TNF-α, IL-1β, IL-6), serum angiogenic cytokines (VEGF, TGF-β1), serum lipid peroxides (malonaldehyde), nitric oxide and peroxynitrite. • 2) Receptor expression of CD11a, CD11b, CD18, and CD14 on PMN and monocytes in the whole blood samples are assessed on the day before taurolidine administration, and day 2, day 5, and day 10 after taurolidine administration. […]

[2] = metabolized to taurine, carbon dioxide and water; cited from earlier work
[3] = humans and animals, intravenous and intraperitoneal administration; cited from earlier work
[4] = test system: inflammatory response in intestinal mucosa in patients with active inflammatory bowel disease; experiment: Oral taurolidine in patients with active IBD: inflammatory response in intestinal mucosa (Example 2); format: in vivo
Source text: This example evaluates the beneficial effect of oral administration of taurolidine on amelioration of inflammatory response in intestinal mucosa in patients with active inflammatory bowel disease. This Example measures proinflammatory cytokines, angiogenic cytokines, reactive oxygen species and nitric oxide in the mucosal biopsy cultures in patients with IBD pre- and post-taurolidine administration. Local mucosal recruited PMN and mononuclear leukocyte-associated proinflammatory cytokine and angiogenic cytokine expression in patients with IBD are assessed pre- and post-taurolidine treatment.
• 1) The specimens of standard intestinal mucosal biopsy are collected from patients with IBD on the day before taurolidine administration, and day 5 and day 10 after taurolidine administration, and incubated with completed culture medium for different time points. The supernatants from the biopsy cultures are harvested by centrifugation and stored at −80° C. for measurement of proinflammatory cytokines (TNF-α, IL-1β, IL-6), angiogenic cytokines (VEGF, TGF-β1), lipid peroxides (malonaldehyde), nitric oxide and peroxynitrite. • 2) The mononuclear leukocytes from the above specimens of mucosal biopsy are isolated using the technique of collagenase-digestion and density gradient sedimentation. […]

[5] = test system: gram positive and gram negative bacteria and fungi; conditions: cited from earlier work

Compound: O=S1(=O)CCN(CN2CCS(=O)(=O)NC2)CN1 [Taurolidine, bis(1,1-dioxoperhydro-1,2,4-thiadiazin-4-yl)methane]
- systemic proinflammatory and angiogenic cytokine levels, PMN and monocyte adhesion receptor expression, lipid peroxides, nitric oxide, peroxynitrite [1]: ameliorates these phenomena
- half life [2]: short half life
- toxicity / side effects [3]: non-toxic to humans and animals and is free from side effects
- pathological changes in intestinal mucosa ([4]; day before vs day 5 and day 10): improves pathological changes in intestinal mucosa
- proinflammatory cytokines, angiogenic cytokines, reactive oxygen species, recruitment of PMN and mononuclear leukocytes in the intestinal mucosa ([4]; mucosal biopsy): downregulation
- antimicrobial activity [5]: broad spectrum of antimicrobial activity
